Measured values from PMC12133000 (PLOS One, 2025).
Read-outs that look alike come from different tables or passages of the source.

What was measured:
[1] = biological target: rat liver microsomes (RLMs); assay: Inhibitory mechanism (Ki, αKi, Lineweaver-Burk plots) in RLMs; conditions: read-out: inhibitory constant (Ki), substrate rivaroxaban
Excerpt: Ki and αKi values were computed, and the inhibitory mechanism was examined using Lineweaver–Burk plots.

[2] = tested on: rat liver microsomes (RLMs); assay: EGFR TKI screening: rivaroxaban metabolite M-2 formation in RLM incubation; format: in vitro ADME
Protocol: The system was preincubated at 37 °C for 5 min, followed by the addition of NADPH (1 mM) to initiate the reaction. After incubating for an additional 30 min, a 200 μL of acetonitrile solution containing 200 ng/mL midazolam was introduced. The mixture was vortexed for 30 s, centrifuged at 13000 rpm for 5 min, and the supernatant was removed. Three samples were collected for each group.

[3] = tested on: CYP2J2; conditions: cited from earlier work; for inhibition of rivaroxaban hydroxylation by CYP2J2: in vitro ref 24
[4] = patients on rivaroxaban, combination with clarithromycin ref 33; cited from earlier work
[5] = tested on: P-gp; parameters: method as in PMID 35174529; conditions: in vitro, combination with rivaroxaban ref 21; read-out: IC50 (inhibitory properties of TKIs on DOACs, P-gp mediated); cited from earlier work
[6] = tested on: CYP3A4; conditions: in vitro ref 25; cited from earlier work
[7] = combination with TKI ref 25; cited from earlier work

With `C=CC(=O)Nc1cccc(Oc2nc(Nc3ccc(N4CCN(C)CC4)c(F)c3)nc3[nH]ccc23)c1` [avitinib, Avitinib] the Ki [1] was 3.24 µM, the “ratio of the metabolite concentration relative to the control” value ([2]; 100 μM EGFR TKI, 0.5 mg/mL RLMs, rivaroxaban metabolite M-2, average) was 5.6% and the “effect on rivaroxaban metabolism (metabolite generation rate vs control)” value (from here on “effect … (metabolite generation rate vs control)”) ([2]; 100 μM EGFR TKI, RLMs) was “significantly inhibited”. For the same compound, the “inhibition pattern with rivaroxaban as probe substrate” value [3] was “atypical inhibitory kinetics” and the “inhibition of rivaroxaban hydroxylation by CYP2J2” value [3] was “concentration-dependent inhibition”.

For `CC[C@H]1OC(=O)[C@H](C)[C@@H](O[C@H]2C[C@@](C)(OC)[C@@H](O)[C@H](C)O2)[C@H](C)[C@@H](O[C@@H]2O[C@H](C)C[C@H](N(C)C)[C@H]2O)[C@](C)(OC)C[C@@H](C)C(=O)[C@H](C)[C@@H](O)[C@]1(C)O` [clarithromycin], the “increase in the AUC value for rivaroxaban” value [4] is listed as “two-fold increase”.

For `COc1cc2ncnc(Nc3ccc(F)c(Cl)c3)c2cc1NC(=O)/C=C/CN1CCCCC1` [dacomitinib], the “effect … (metabolite generation rate vs control)” value ([2]; 100 μM EGFR TKI, RLMs) was “significantly inhibited”.

For `C#Cc1cccc(Nc2ncnc3cc(OCCOC)c(OCCOC)cc23)c1` [erlotinib], the IC50 [5] is given as less than 10 µM.

For `COc1cc2ncnc(Nc3ccc(F)c(Cl)c3)c2cc1OCCCN1CCOCC1` [gefitinib, Gefitinib], the “inhibition of CYP3A4-mediated rivaroxaban metabolism” value [6] is given as “potently inhibited”.

In the case of `Cc1ccc(NC(=O)c2ccc(CN3CCN(C)CC3)cc2)cc1Nc1nccc(-c2cccnc2)n1` [imatinib], the “increase of rivaroxaban AUC” value [7] is given as 119.96% and the “increase of rivaroxaban Cmax” value [7] is given as 90.43%.

In the case of `CS(=O)(=O)CCNCc1ccc(-c2ccc3ncnc(Nc4ccc(OCc5cccc(F)c5)c(Cl)c4)c3c2)o1` [lapatinib], the “effect … (metabolite generation rate vs control)” value [2] is reported as “significantly inhibited”.

For `CCOc1cc2ncc(C#N)c(Nc3ccc(OCc4ccccn4)c(Cl)c3)c2cc1NC(=O)/C=C/CN(C)C` [neratinib], the “effect … (metabolite generation rate vs control)” value [2] was “significantly inhibited”.

For `C=CC(=O)Nc1cc(Nc2nccc(-c3cn(C)c4ccccc34)n2)c(OC)cc1N(C)CCN(C)C` [osimertinib], the “inhibition pattern with rivaroxaban as probe substrate” value [3] is listed as “competitive inhibition” and the “inhibition of rivaroxaban hydroxylation by CYP2J2” value [3] is listed as “concentration-dependent inhibition”.

For `CCN(CC)CCNC(=O)c1c(C)[nH]c(/C=C2\C(=O)Nc3ccc(F)cc32)c1C` [sunitinib], the “reduction in exposure to rivaroxaban in vivo” value [7] is listed as 62.32%.
